We go through 30 compounds from ChEMBL document CHEMBL1125530, “1,4-Dihydropyridines as antagonists of platelet activating factor. 1. Synthesis and structure-activity relationships of 2-(4-heterocyclyl)phenyl derivatives” (J Med Chem, 1992).

Sequence of Platelet-activating factor receptor (Mus musculus) (Q62035 whole entry): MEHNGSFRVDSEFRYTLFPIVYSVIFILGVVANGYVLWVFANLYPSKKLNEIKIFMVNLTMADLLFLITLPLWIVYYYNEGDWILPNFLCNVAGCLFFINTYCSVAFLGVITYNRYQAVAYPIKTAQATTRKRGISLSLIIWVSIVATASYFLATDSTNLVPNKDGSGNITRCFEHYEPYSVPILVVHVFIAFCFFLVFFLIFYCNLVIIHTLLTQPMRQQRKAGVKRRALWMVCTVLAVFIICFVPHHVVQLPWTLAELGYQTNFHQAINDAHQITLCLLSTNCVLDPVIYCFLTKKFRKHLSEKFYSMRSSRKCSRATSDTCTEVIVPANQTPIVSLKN

The assay addresses Platelet-activating factor receptor (Mus musculus) (UniProt Q62035). The experiment in a line: Ability to protect mice from lethal effects of an injection of PAF in vivo. The class given is functional, organism-based. The following applies: Mus sp.
For orientation: ED50 means the dose at which the effect has come halfway, by size or by number of responders. For the compound `CCOC(=O)C1=C(c2ccc(-n3c(C)nc4cnccc43)cc2)NC(C)=C(C(=O)Nc2ccccn2)C1c1ccccc1OC(F)(F)F` (stereo not given), it took a dose of 0.2 mg/kg to reach the 50% effect level (ED50). For `CCOC(=O)C1=C(c2ccc(-n3c(C)nc4ccncc43)cc2)NC(C)=C(C(=O)Nc2ccccn2)C1c1ccccc1Cl` (stereo not given), the 50% effect level (ED50) was put at a dose of 16 mg/kg.

As for `CCOC(=O)C1=C(c2ccc(-n3c(C)nc4cnccc43)cc2)N=C(C)/C(=C(/O)OCc2ccccc2)C1c1ccccc1Cl` (stereo not given), the 50% effect level (ED50) was put at a dose of 2 mg/kg. Compared with the last compound, the ED50 is about 8-fold lower.

In the case of `CCOC(=O)C1=C(c2ccc(-n3c(C)nc4cnccc43)cc2)NC(C)=C(C(=O)Nc2ccccn2)C1c1ccc(C#N)cc1` (stereo not given), it took a dose of 1.2 mg/kg to reach the 50% effect level (ED50). As to `CCOC(=O)C1=C(c2ccc(-c3c(C)nc4sccn34)cc2)NC(C)=C(C(=O)Nc2ccccn2)C1c1ccccc1Cl` (stereo not given), it took a dose of 5.4 mg/kg to reach the 50% effect level (ED50). As to `CCOC(=O)C1=C(c2ccc(-n3cc(C)nc3C)cc2)NC(C)=C(C(=O)Nc2ccccn2)C1c1ccccc1Cl` (stereo not given), it took a dose of 3 mg/kg to reach the 50% effect level (ED50). Then `CCOC(=O)C1=C(c2ccc(-n3c(C)nc4cccnc43)cc2)NC(C)=C(C(=O)Nc2ccccn2)C1c1ccccc1Cl` (stereo not given), with 23 mg/kg; and `CCOC(=O)C1=C(c2ccc(-n3c(CC)nc4cnccc43)cc2)NC(C)=C(C(=O)Nc2ccccn2)C1c1ccccc1Cl` (stereo not given), with 10.5 mg/kg; and `CCOC(=O)C1=C(c2ccc(-n3c(C)nc4cnccc43)cc2)NC(C)=C(C(=O)Nc2ccccn2)C1c1ccccc1Cl` (stereo not given), with 0.26 mg/kg. With `CCOC(=O)C1=C(c2ccc(-n3c(C)nc4cnccc43)cc2)N=C(C)/C(=C(/O)OCCOC)C1c1ccccc1Cl` (stereo not given), the ED50 is 0.16 mg/kg. Turning to `CCOC(=O)C1=C(c2ccc(-n3c(C)nc4cnccc43)cc2)NC(C)=C(C(=O)Nc2ccccn2)C1c1cccnc1Cl` (stereo not given), it took a dose of 13 mg/kg to reach the 50% effect level (ED50).

The compound `CCOC(=O)C1=C(c2ccc(-n3c(C)nc4cnccc43)cc2)NC(C)=C(C(=O)Nc2ccccn2)C1c1csc2ccccc12` (stereo not given) gave an ED50 of 0.6 mg/kg. Take `CCOC(=O)C1=C(c2ccc(-n3c(C)nc4cnccc43)cc2)N=C(C)/C(=C(/O)OC2CCCCC2)C1c1ccccc1Cl` (stereo not given): it took a dose of 4.7 mg/kg to reach the 50% effect level (ED50).

On to `CCOC(=O)C1=C(c2ccc(-n3c(C)nc4cnccc43)cc2)NC(C)=C(C(N)=O)C1c1ccccc1Cl` (stereo not given), for which the median effective dose (ED50) stood at 1 mg/kg.

Turning to `CCOC(=O)C1=C(c2ccc(-n3ccnc3C)cc2)NC(C)=C(C(=O)Nc2ccccn2)C1c1ccccc1Cl` (stereo not given), the 50% effective dose (ED50) amounted to 22 mg/kg. Compared with the last compound, the ED50 is about 22-fold higher. For the compound `Cc1nnc2n1-c1sc(CCC(=O)N3CCOCC3)cc1C(c1ccccc1Cl)=NC2`, the ED50 turned out to be 2.03 mg/kg. With `CCOC(=O)C1=C(c2ccc(-n3c(C)nc4c(C)nc(C)cc43)cc2)NC(C)=C(C(=O)Nc2ccccn2)C1c1ccccc1Cl` (stereo not given), the 50% effect level (ED50) was put at a dose of 0.3 mg/kg. This ED50 lies about 6.8-fold lower than the previous one.

`CCOC(=O)C1=C(c2ccc(-n3c(C)nc(C)c3C)cc2)NC(C)=C(C(=O)Nc2ccccn2)C1c1ccccc1Cl` (stereo not given) gave a median effective dose (ED50) of 10.5 mg/kg.

`CCOC(=O)C1=C(c2ccc(-c3cccnc3C)cc2)NC(C)=C(C(=O)Nc2ccccn2)C1c1ccccc1Cl` (stereo not given) displayed an ED50 of 3.7 mg/kg. The compound `CCOC(=O)C1=C(c2ccc(-n3c(C)nc4cnccc43)cc2)NC(C)=C(C(=O)NC(C)(C)C)C1c1ccccc1Cl` (stereo not given) showed an ED50 of 2.1 mg/kg.

For `CCOC(=O)C1=C(c2ccc(-n3c(C)nc4cnccc43)cc2)N=C(C)/C(=C(/O)OC(C)(C)C)C1c1ccccc1Cl` (stereo not given), the 50% effect level (ED50) was put at a dose of 2 mg/kg.

Take `CCOC(=O)C1=C(c2ccc(-n3c(C)nc4cnccc43)cc2)NC(C)=C(C(=O)Nc2ccccn2)C1c1cccc2c1OCO2` (stereo not given): the median effective dose (ED50) is 0.5 mg/kg. `CCOC(=O)C1=C(c2ccc(-n3c(C)nc4cnccc43)cc2)NC(C)=C(C(=O)Nc2ccccn2)C1c1ccccn1` (stereo not given) registered a median effective dose (ED50) of 4.1 mg/kg. Take `CCOC(=O)C1=C(c2ccc(-c3sc(C)nc3C)cc2)NC(C)=C(C(=O)Nc2ccccn2)C1c1ccccc1Cl` (stereo not given): the ED50 was 7.4 mg/kg.

Compound `CCOC(=O)C1=C(c2ccc(-n3c(C)nnc3C)cc2)NC(C)=C(C(=O)Nc2ccccn2)C1c1ccccc1Cl` (stereo not given) showed an ED50 of 34 mg/kg. `CCOC(=O)C1=C(c2ccc(-n3c(C)nc4cnccc43)cc2)NC(C)=C(C(=O)Nc2ccccn2)C1c1cccnc1` (stereo not given): the ED50 was 16 mg/kg. The compound `CCOC(=O)C1=C(c2ccc(-c3c(C)nc4ccccn34)cc2)NC(C)=C(C(=O)Nc2ccccn2)C1c1ccccc1Cl` (stereo not given) displayed an ED50 of 92 mg/kg. On to `CCOC(=O)C1=C(c2ccc(-n3c(C)nc4cnccc43)cc2)NC(C)=C(C(=O)O)C1c1ccccc1Cl` (stereo not given), for which the ED50 was 4.7 mg/kg.

`CCOC(=O)C1=C(c2ccc(-n3c(C)nc4cnccc43)cc2)N=C(C)/C(=C(/O)OC)C1c1ccccc1Cl` (stereo not given) had a 50% effective dose (ED50) of 1.5 mg/kg.

`CCOC(=O)C1=C(c2ccc(-n3c(C(F)(F)F)nc4cnccc43)cc2)NC(C)=C(C(=O)Nc2ccccn2)C1c1ccccc1Cl` (stereo not given) had an ED50 of 25 mg/kg.
